According to US20250235533A1, “INJECTABLE PROLONGED-RELEASE HYDROGEL FORMULATIONS OF TOLL-LIKE RECEPTOR AGONISTS FOR INTRATUMORAL INJECTION TO INCREASE IMMUNOTHERAPY RESPONSE” (priority 2024, published 2025):

Tests used:
[1] = Solubility / encapsulation of immunoadjuvant in PLGA-PEG-PLGA micelles; format: physicochemical
Method: Typically, 1 g of PLGA-PEG-PLGA was dissolved in 4 ml 0.9% saline solution (Baxter, Deerfield, IL) to obtain a 25% weight/volume (w/v) concentration at 4° C. over 2 days and vortexed/stirred daily. Importantly, the normal saline cannot contain the preservative phenol, commonly found in preservative containing commercial saline solutions. After a homogeneous hydrogel solution was observed by stirring with a spatula, imiquimod was added at 24 mg to the batch, the dispersion was vortexed and allowed to dissolve at room temperature over 2 days. Some of the gels received Iopamidol as contrast agent at 100 mg mL^−1, which was left to disperse or dissolve over 1 day. The resulting Imigel or Imigel+Iopamidol was stored at room temperature, shielded from evaporation, and used within 1 week from full dissolution to prevent hydrolysis. (FIGS. 3A-3E).

[2] = In vitro release studies; format: physicochemical
Method: Drug release kinetics of imiquimod from various […] formulations were studied by placing aliquots of drug-loaded hydrogel into 50 mL conical tubes at 100 rpm at 37° C., releasing drug into DPBS. 50 μL of […] were added to the bottom of 50 mL conical Falcon tubes or in a dialysis tubing (D-tube Dialyzer Maxi, MWCO 3.5 kDa) at room temperature and brought to gel state by incubating at 37° C. for 30 min while DPBS as receiving fluid was preheated at the same temperature. After […] solidified, 50 mL DPBS (pH 7.4), Lactated […]), or Acetate Buffer (pH 5, 0.03 m Acetic acid, and 0.07 m Sodium Acetate in DI water) were added slowly to the conical tubes. These containers were then incubated at 37° C. under shaking at 100 rpm. 400 μL samples were taken from the receiving fluid with a 1 mL syringe through 0.2 μm filters (PALL super membrane low protein binding non-pyrogenic) to avoid accidental removal of gel. Concentration of imiquimod in the samples was assessed eluting the samples on an Agilent 1100 high-performance liquid chromatography (HPLC) with UV detector at 242 nm over an Eclipse XD8-C18 column (150×4.6 mm, 3.5 μm pore size) with an acetonitrile/water gradient from 5/95 to 95/5 over 6 min at 1 mL mi-1 n. […] Concentrations were calculated from UV signals using a calibration curve of known concentration imiquimod standards in DMSO/Acetonitrile.

[3] = system: CT-26 tumors; assay: Dual tumor model survival study, CT-26; format: in vivo, balb/c mice; details: CT-26 model
Method: Per experimental arm 10-15 Balb c^−1 mice were injected with approximately 10^6 cells of CT-26 or EMT-6 cells, day 0 (FIG. 6) in bilateral flanks. Immunotherapy (anti-PD-1 (3.9 mg mL^−1), anti-CTLA-4 (2.2 mg mL^−1) co-immunotherapy was given intraperitoneally (Sigma-Aldrich) every 3 days from day 3-12. Mice with primary and contralateral tumors of at least 6 mm were chosen to be randomized to various treatment arms evaluating CPI with and without cryoablation, imiquimod drug-only injection, PLGA-PEG-PLGA only injection, or imigel (3:1) injection. The imigel, gel alone, or serial imiquimod suspensions were injected as 50 μL injections using a 26-gauge needle. For cryoablation, parameters included a 30 s freeze, followed by 2 min thaw, followed by a 30 s freeze with goal of approximately 50% tumoral freezing. When using cryoablation, the drug formulations were injected 5 min post final freeze, with a mild pause during injection to ensure no push back via the tract into the remaining viable tumor. Imiquimod alone was prepared as a suspension by 30 min of sonication at 1 mg mL^−1 in normal saline. Injections for imiquimod alone were done as a total 50 μL 1 mg mL^−1 injections once per day for six total doses. Specifically, Imigel delivered a total of 300 μg in one injection in two 25 μL injection depots within the tumor at the same injection session for only one session. […]

[4] = system: CD8+ T cells in CT-26 tumors; assay: Intratumoral flow cytometry, CT-26 model; format: in vivo, mice; details: compared to CPI only
Method: Additional groups of 4 mice were injected with CT-26 and treated as above. 6 days post local intervention, mice were euthanized, and ipsilateral and contralateral tumors excised. In all cases of this example, tumor samples were minced and then incubated in a collagenase solution (1 mg mL^−1 in RPMI—1640) for approximately 45 min at 37° C. Tumors were processed into a single cell suspension using a 70 μm cell strainer.
For flow cytometry, using the cells harvested as above, cell viability was assessed by trypan blue staining, and 1×10^6 viable cells were stained for flow cytometry analysis. Cells were washed with PBS and stained with a 1:1000 solution of ZOMBIE Aqua (from […], Biolegend) and incubated on ice for 15 min. […] Cells were resuspended in cell staining buffer, and the samples were analyzed on an Aurora (Cytek Biotechnology). […] Gating for individual markers was determined by fluorescent minus one (FMO) control panels and unstained controls. […]

[5] = cited from earlier work

Q: With `CCCN(CCC)C(=O)C1=Cc2ccc(-c3ccc(C(=O)N4CCCC4)cc3)cc2N=C(N)C1` [motolimod] as the compound, how does the encapsulation ([1]; motolimod in PLGA-PEG-PLGA injectable composition) read?
A: The encapsulation was “around 6 mg/mL”.

Q: And the “release profile of motolimod” value ([2]; into PBS, PLGA-PEG-PLGA 1600-1500-1600 and 1500-1500-1500)?
A: Its value is “relatively extended”.

Q: For `O=S(=O)([O-])[O-].[Ba+2]` [barium sulfate], which “effect on release profile of imiquimod from injectable composition” value ([2]; phosphate buffer solution at 37 degrees C) is on record?
A: Its value is “does not significantly change the release profile of imiquimod”.

Q: With `CC(C)Cn1cnc2c(N)nc3ccccc3c21` [imiquimod] as the compound, how does the solubility at 2 days ([1]; PLGA1.5k-PEG1.5k-PLGA1.5k micelles (hydrogel solution), aqueous with cosolvent or surfactant or cyclodextrin, thermodynamic from solid, in PLGA1.5k-PEG1.5k-PLGA1.5k micelles, read-out: concentration uniformly solubilized) read?
A: The solubility at 2 days was roughly 6000 µg/mL.

Q: What about the “increase of aqueous solubility” value ([1]; encapsulated in micellar structure of PLGA-PEG-PLGA) of the same compound?
A: Its value is “approximately 2000 fold”.

Q: What about the 90-day survival ([3]; serial imiquimod (6 daily injections) with CPI and cryoablation) of the same compound?
A: Its 90-day survival is 46.7%.

Q: What about the 90-day survival ([3]; serial imiquimod (6 daily injections) with CPI, no cryoablation) of the same compound?
A: Its 90-day survival is 57%.

Q: What about the “percentage of activated CD8+ T cells (dual CD44+PD1+ among CD8+ T-cells)” value [4] of the same compound?
A: Its value is “significant increase”.

Q: And the solubility in saline [5]?
A: The solubility in saline was “around 0.002 mg mL^−1”.
